The text below walks through data of ChEMBL document CHEMBL5674860, “Optimized Dual-Glo Assay to identify co-culture-induced drug vulnerabilities in 3D CRC models” (2024).

Format in all cases: functional, Homo sapiens
Design in all cases: dose or concentration left out as unconfirmed

The subject of test [1] is Colon cancer organoid. In words: Optimized Dual-Glo assay to identify co-culture induced drug vulnerabilities using donated chemical probes and chemogenomics kinase set in O14 CRC organoid and F14 CAF mono and co-culture. […] Cell viability is reported both mono and co-culture models.
Test [2] deals with Colon cancer organoid. In words: Optimized Dual-Glo assay to identify co-culture induced drug vulnerabilities using donated chemical probes and chemogenomics kinase set in O20 CRC organoid and F20 CAF mono and co-culture. […] Cell viability is reported both mono and co-culture models.
For test [3], the system named is Colon cancer organoid. In words: Optimized Dual-Glo assay to identify co-culture induced drug vulnerabilities using donated chemical probes and chemogenomics kinase set in O06 CRC organoid and F06 CAF mono and co-culture. […] Cell viability is reported both mono and co-culture models.
The mark [4] stands for this setting: Culture type Co-Culture, Transduced with Lucferase2-P2A-EGFP lentivirus.
Where [5] appears, read: Culture type Co-Culture, Transduced with Renilla-dsRed lentivirus.
Where [6] appears, read: Culture type Mono-Culture, Transduced with Lucferase2-P2A-EGFP lentivirus.
Setting [7] is: Culture type Mono-Culture, Transduced with Renilla-dsRed lentivirus.

For the molecule `O=C(c1ccc(C(=O)N2CCC(N3CCCC3)CC2)c(Nc2ccccc2)c1)N1CCC(N2CCCC2)CC1`, the “Cell Viability” value in test [1] (setting [4]) turned out to be 102.524%; in test [1] (setting [5]) it was 98.4049%; in test [1] (setting [6]), 104.115%; in test [1] (setting [7]) it was 98.5481%; in test [2] (setting [4]), 128.422%; in test [2] (setting [5]), 96.2949%. Also, the “Cell Viability” value in test [2] (setting [6]) was found to be 123.486%; in test [2] (setting [7]), 97.1366%; in test [3] (setting [4]), 108.091%; in test [3] (setting [5]), 96.0319%; in test [3] (setting [6]), 93.2966%; in test [3] (setting [7]), 98.6037%.
In the case of `CC(C)N(CCCNC(=O)Nc1ccc(C(C)(C)C)cc1)C[C@H]1O[C@@H](n2cc(Br)c3c(N)ncnc32)[C@H](O)[C@@H]1O`, the “Cell Viability” value in test [1] (setting [4]) is recorded as 69.7796%; in test [1] (setting [5]), 119.823%; in test [1] (setting [6]), 60.0766%; in test [1] (setting [7]), 78.3641%; in test [2] (setting [4]), 59.1388%; in test [2] (setting [5]), 110.156%. Also, the “Cell Viability” value in test [2] (setting [6]) came to 82.1777%; in test [2] (setting [7]), 84.781%; in test [3] (setting [4]), 62.4885%; in test [3] (setting [5]), 97.8527%; in test [3] (setting [6]), 76.7332%; in test [3] (setting [7]) it was 88.3272%.
Turning to `COc1cc2c(cc1OCCCN1CCCC1)N=C(N)C21CCC1`, the “Cell Viability” value is on record as 71.4641% in test [1] (setting [4]); 82.9559% in test [1] (setting [5]); 58.4791% in test [1] (setting [6]); 57.8128% in test [1] (setting [7]); 75.7779% in test [2] (setting [4]); 100.254% in test [2] (setting [5]). The “Cell Viability” value came out at 68.8586% in test [2] (setting [6]); 68.8682% in test [2] (setting [7]); 84.9948% in test [3] (setting [4]); 83.704% in test [3] (setting [5]); 86.6673% in test [3] (setting [6]); 61.562% in test [3] (setting [7]).
Regarding `CCOC(=O)CCNc1cc(N2CCc3ccccc3CC2)nc(-c2ccccn2)n1`, the “Cell Viability” value was 81.7654% in test [1] (setting [4]); 97.685% in test [1] (setting [5]); 98.6348% in test [1] (setting [6]); 109.679% in test [1] (setting [7]); 100.893% in test [2] (setting [4]); 127.032% in test [2] (setting [5]). Moreover, the “Cell Viability” value is reported as 66.9069% in test [2] (setting [6]); 85.0003% in test [2] (setting [7]); 103.039% in test [3] (setting [4]); 116.98% in test [3] (setting [5]); 128.06% in test [3] (setting [6]); 112.043% in test [3] (setting [7]).
In the case of `CCCc1cc(C)[nH]c(=O)c1CNC(=O)c1cc(-c2ccc(N3CCN(C(C)C)CC3)nc2)cc2c1cnn2C(C)C`, the “Cell Viability” value in test [1] (setting [4]) is 66.7096%; in test [1] (setting [5]), 94.8471%; in test [1] (setting [6]) it was 83.1931%; in test [1] (setting [7]) it was 95.0739%; in test [2] (setting [4]) it was 58.7881%; in test [2] (setting [5]), 157.842%. The “Cell Viability” value in test [2] (setting [6]) worked out at 61.2858%; in test [2] (setting [7]) it was 75.3301%; in test [3] (setting [4]) it was 81.1391%; in test [3] (setting [5]), 118.175%; in test [3] (setting [6]), 116.95%; in test [3] (setting [7]), 88.1686%.
For the molecule `CCCOc1ccn2c(C(C)=O)cc(-c3ccccc3S(C)(=O)=O)c2c1`, the “Cell Viability” value in test [1] (setting [4]) amounted to 117.77%; in test [1] (setting [5]), 112.498%; in test [1] (setting [6]), 105.54%; in test [1] (setting [7]), 97.3869%; in test [2] (setting [4]), 148.391%; in test [2] (setting [5]) it was 117.742%. The “Cell Viability” value is listed as 112.445% in test [2] (setting [6]); 111.137% in test [2] (setting [7]); 121.922% in test [3] (setting [4]); 129.269% in test [3] (setting [5]); 172.982% in test [3] (setting [6]); 130.382% in test [3] (setting [7]).
Regarding `Cc1cc(=O)n(C)c2cc(N3C(=O)CC[C@H](NS(=O)(=O)CC(C)C)[C@H]3c3ccc(Cl)cc3)ccc12`, the “Cell Viability” value in test [1] (setting [4]) was found to be 75.0892%; in test [1] (setting [5]), 148.008%; in test [1] (setting [6]), 105.721%; in test [1] (setting [7]), 116.483%; in test [2] (setting [4]) it was 107.11%; in test [2] (setting [5]), 166.434%. The “Cell Viability” value was 116.867% in test [2] (setting [6]); 106.138% in test [2] (setting [7]); 117.914% in test [3] (setting [4]); 167.751% in test [3] (setting [5]); 110.238% in test [3] (setting [6]); 116.926% in test [3] (setting [7]).
As to `CCN(C(=O)CO)[C@H]1CN(/C(=N\C#N)Nc2cccc(OC(F)F)c2)N=C1c1ccc(Cl)c(Cl)c1`, the “Cell Viability” value in test [1] (setting [4]) is reported as 96.421%; in test [1] (setting [5]) it was 116.48%; in test [1] (setting [6]), 90.9581%; in test [1] (setting [7]) it was 97.9735%; in test [2] (setting [4]) it was 98.0443%; in test [2] (setting [5]) it was 141.776%. The “Cell Viability” value in test [2] (setting [6]) was found to be 125.834%; in test [2] (setting [7]), 95.5224%; in test [3] (setting [4]), 100.328%; in test [3] (setting [5]), 102.729%; in test [3] (setting [6]), 73.2581%; in test [3] (setting [7]), 127.729%.
Turning to `Nc1ncnc2c1ccn2[C@@H]1O[C@H]([C@H](O)c2ccccc2)[C@@H](O)[C@H]1O`, the “Cell Viability” value is listed as 19.223% in test [1] (setting [4]); 140.259% in test [1] (setting [5]); 27.9797% in test [1] (setting [6]); 80.8035% in test [1] (setting [7]); 28.437% in test [2] (setting [4]); 179.519% in test [2] (setting [5]). Also, the “Cell Viability” value in test [2] (setting [6]) was 41.1766%; in test [2] (setting [7]) it was 89.3267%; in test [3] (setting [4]), 22.7938%; in test [3] (setting [5]) it was 108.338%; in test [3] (setting [6]) it was 39.3105%; in test [3] (setting [7]), 99.7719%.
Take `Cl.Cl.c1ccc([C@@H]2C[C@H]2NC2CCNCC2)cc1`: the “Cell Viability” value in test [1] (setting [4]) was 82.3558%; in test [1] (setting [5]), 127.479%; in test [1] (setting [6]), 88.7328%; in test [1] (setting [7]) it was 113.061%; in test [2] (setting [4]), 42.5951%; in test [2] (setting [5]), 97.3617%. Besides, the “Cell Viability” value is on record as 75.8314% in test [2] (setting [6]); 98.3245% in test [2] (setting [7]); 78.4875% in test [3] (setting [4]); 97.0217% in test [3] (setting [5]); 85.9094% in test [3] (setting [6]); 106.355% in test [3] (setting [7]).
As for `COc1c(C)cc(NC(=O)c2nn(Cc3ccc(F)cc3)c3c2CN(C(=O)c2ccc[nH]2)C[C@]3(C)C(N)=O)cc1C`, the “Cell Viability” value in test [1] (setting [4]) worked out at 89.068%; in test [1] (setting [5]), 129.679%; in test [1] (setting [6]) it was 87.8638%; in test [1] (setting [7]), 102.007%; in test [2] (setting [4]), 106.451%; in test [2] (setting [5]), 95.1299%. In addition, the “Cell Viability” value in test [2] (setting [6]) came out at 138.387%; in test [2] (setting [7]) it was 102.921%; in test [3] (setting [4]) it was 66.5012%; in test [3] (setting [5]), 112.674%; in test [3] (setting [6]), 87.4341%; in test [3] (setting [7]), 110.624%.
Regarding `Cc1nnc2c3ccccc3c(N[C@@H](C)[C@H](c3ccccc3)N(C)C)nn12`, the “Cell Viability” value in test [1] (setting [4]) was 89.8317%; in test [1] (setting [5]), 122.44%; in test [1] (setting [6]), 117.177%; in test [1] (setting [7]), 107.176%; in test [2] (setting [4]) it was 82.0862%; in test [2] (setting [5]), 127.368%. The “Cell Viability” value in test [2] (setting [6]) was 95.9209%; in test [2] (setting [7]), 100.184%; in test [3] (setting [4]), 95.7989%; in test [3] (setting [5]) it was 115.114%; in test [3] (setting [6]) it was 100.296%; in test [3] (setting [7]) it was 129.772%.
Take `C[C@H]1CC(=O)Nc2cc(C(=O)NCCC3CC3)ccc2N1C(=O)N1CC2CC2C1` (stereo partly drawn): the “Cell Viability” value in test [1] (setting [4]) is listed as 72.2289%; in test [1] (setting [5]) it was 101.41%; in test [1] (setting [6]), 80.5063%; in test [1] (setting [7]), 95.2313%; in test [2] (setting [4]), 105.905%; in test [2] (setting [5]) it was 112.87%. In addition, the “Cell Viability” value in test [2] (setting [6]) turned out to be 104.527%; in test [2] (setting [7]), 89.0255%; in test [3] (setting [4]) it was 115.835%; in test [3] (setting [5]), 132.849%; in test [3] (setting [6]), 119.799%; in test [3] (setting [7]) it was 120.051%.
As to `COc1cc(C(=O)N2CC[C@@H](O)[C@@H](N)C2)cc2nc(-c3cc4ccccc4n3CC3CC3)n(C)c12.Cl`, the “Cell Viability” value in test [1] (setting [4]) was 132.512%; in test [1] (setting [5]), 122.105%; in test [1] (setting [6]) it was 79.0484%; in test [1] (setting [7]), 89.8768%; in test [2] (setting [4]), 98.8385%; in test [2] (setting [5]), 114.018%. Moreover, the “Cell Viability” value is recorded as 83.2381% in test [2] (setting [6]); 78.6997% in test [2] (setting [7]); 124.227% in test [3] (setting [4]); 121.721% in test [3] (setting [5]); 98.6493% in test [3] (setting [6]); 122.476% in test [3] (setting [7]).
